Assay [1] deals with T1, MRGPRX2 (Homo sapiens, UniProt Q96LB1).
T1 sequence (Q96LB1 1-330): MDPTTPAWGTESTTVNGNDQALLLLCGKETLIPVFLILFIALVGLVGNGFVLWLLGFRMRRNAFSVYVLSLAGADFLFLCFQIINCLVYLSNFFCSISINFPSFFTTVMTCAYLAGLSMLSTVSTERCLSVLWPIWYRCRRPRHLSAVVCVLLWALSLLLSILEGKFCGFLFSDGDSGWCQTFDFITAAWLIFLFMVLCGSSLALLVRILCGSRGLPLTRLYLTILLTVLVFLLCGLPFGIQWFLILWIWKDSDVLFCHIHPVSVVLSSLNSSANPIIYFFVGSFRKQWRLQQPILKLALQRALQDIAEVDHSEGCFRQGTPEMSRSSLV
The assay is described as follows: MRGPRX2 IP1 HTRF assay. The class given is cell-based. Details: host or cells: CHO-K1. The conditions noted are these: CHO-K1 cells stably expressing human MRGPRX2; IP1 accumulation, agonist Cortistatin 14 1 μM. The source says: Example B: MRGPRX2 IP1 HTRF Assay
This assay measures compound inhibition of myo-Inositol 1 phosphate (IP1) accumulation in CHO-K1 cells. Chinese hamster ovary (CHO-K1) cells stably expressing human MRGPRX2 were purchased from GenScript (Piscataway, NJ).
For the HTRF IP1 determination, an IP-One GqKit (Perkin Elmer Cisbio, Waltham, MA), which includes all reagents and buffers in this protocol, was used. The cells were maintained in culture medium (Ham's F-12K) containing 10% (v/v) FBS, and 200 μg/mL Zeocin. For the assay, the cells were harvested and resuspended in culture medium with 2% FBS and without Zeocin, then were passed through a 40 μm filter. Cells were added at 20000 cells in a 5 μL/well to a 384-well white small volume cell culture plate (Greiner VWR, Radnor, PA) which contained 50 nL/well of test compound serially diluted at a selected concentration range in DMSO. 5 μL/well of prepared 2× Stimulation Buffer2 was then added to plates and was incubated at 37° C. with 5% CO2 for 1 h. 5 μL/well of agonist Cortistatin 14 (Bio-TechneR&D Systems, Minneapolis, MN) in 1× Stimulation Buffer 2, for a 1 μM final concentration, was then added to plates and incubated at 37° C. with 5% CO2 for 1 h. 6 μL/well of 1:20 diluted Detection Reagent Mix (d2 and Cryptate) was added to the plates and incubated for 1 h in the dark. Plates were read on the PHERAstar microplate reader (BMG Labtech Cary, NC) to determine the HTRF ratio of the acceptor and donor emission signals. The IP1 concentrations were calculated from a standard curve following the IP-One GQ kit instructions. Wells with DMSO only and wells with high concentration of reference antagonist were used as controls for normalization. Compound IC50 curves were globally fitted with 3- or 4-parameter Hill equation in a Genedata Screener (Genedata Basel, Switzerland).
In general terms: TR-FRET usually uses a lanthanide donor and a delayed reading to cut background.

Assay [2] deals with T1, MRGPRX2. Description: MRGPRX2 β-Arrestin assay. Format: cell-based. Particulars: PathHunter CHO-K1 MRGPRX2 β-Arrestin cell line; agonist Cortistatin 14 0.25 μM. Details: host or cells: PathHunter CHO-K1. The source says: Example C: MRGPRX2 β-Arrestin Assay
This assay measures compound inhibition of β-Arrestin recruitment, which is part of the G protein-independent pathway that results from the ligand-activated GPCR phosphorylation by specific GPCR kinases. The PathHunter CHO-K1 MRPGRX2 B-Arrestin Cell line stably expressing ProLink tagged MRGPRX2 and Enzyme Acceptor Tagged B-Arrestin was purchased from Eurofins DiscoverX, (Fremont, CA).
The cells were maintained in culture medium from the Europhins DiscoverX Cell Culture Kit-107 which includes FBS, hygromycin B and G418. For the assay, the cells were harvested and were resuspended with Cell Plating Reagent 2 (Eurofins DiscoverX). Cells were added 10000 cells in 25 µL/well to a 384-well black cell culture plate (Greiner VWR, Radnor, PA) which contained 125 nL/well of compound at a selected serially diluted concentration range or DMSO. The plate was incubated at 37° C. with 5% CO2 for 1 h. 2 μL/well of agonist Cortistatin 14 was diluted in Protein Dilution Buffer, (Eurofins DiscoverX) for a final concentration of 0.25 μM, was added and the plate was incubated at 37° C. with 5% CO2 for 90 min. 14 μL/well of Detection Reagent Mix (PathHunter Detection Kit, Eurofins DiscoverX) was added to the plates and further incubated for 1 h in the dark. Plates were read on the PHERAstar microplate reader (BMG Labtech Cary, NC) measuring luminescence 0.1 to 1 second per well. Data was normalized using DMSO only wells and wells with high concentration of reference antagonist as controls. Compound IC50 curves were globally fitted with 3- or 4-parameter Hill equation in a Genedata Screener (Genedata Basel, Switzerland).

Usually pIC50 stands for the negative decadic logarithm of the IC50, by convention in mol/L.

SMILES strings stand for the structures. pIC50: −log10 of the molar value.

Regarding `O=C(N[C@H]1CC[C@H](O)CC1)N1CC(CNc2cc(C(F)(F)F)nc3ccc(Cl)cc23)(n2cc(F)cn2)C1` [Example 88, 3-(((6-Chloro-2-(trifluoromethyl)quinolin-4-yl)amino)methyl)-3-(4-fluoro-1H-pyrazol-1-yl)-N-((1r,4r)-4-hydroxycyclohexyl)azetidine-1-carboxamide], the pIC50 in assay [1] and in assay [2] was 7.00 to 10.00 in each case.
`OC1(C(F)(F)F)CC(CNc2cc(C(F)(F)F)nc3ccc(Cl)cc23)(c2ccccc2)C1` (stereo not drawn) [Example 66, 3-(((6-Chloro-2-(trifluoromethyl)quinolin-4-yl)amino)methyl)-3-phenyl-1-(trifluoromethyl)cyclobutan-1-ol]: the pIC50 in assay [1] and in assay [2] was 7.00 to 10.00 throughout.
Turning to `N#C[C@H]1CC[C@H](NC(=O)N2CC(CNc3cc(C(F)(F)F)nc4ccc(Cl)cc34)(c3ccc(F)cc3)C2)CC1` [Example 91, 3-(((6-Chloro-2-(trifluoromethyl)quinolin-4-yl)amino)methyl)-N-((1r,4r)-4-cyanocyclohexyl)-3-(4-fluorophenyl)azetidine-1-carboxamide], the pIC50 in assay [1] and in assay [2] was 7.00 to 10.00 throughout.
`Fc1ccc(C2(CNc3cc(C(F)(F)F)nc4ccc(Cl)cc34)CN(Cc3cn[nH]c3)C2)cc1` [Example 93, N-((1-((1H-Pyrazol-4-yl)methyl)-3-(4-fluorophenyl)azetidin-3-yl)methyl)-6-chloro-2-(trifluoromethyl)quinolin-4-amine]: the pIC50 in assay [1] and in assay [2] was 7.00 to 10.00 throughout.
`[2H]C([2H])([2H])NC(=O)N1CC(CNc2cc(C(F)(F)F)nc3ccc(Cl)cc23)(n2cc(CC#N)cn2)C1` [Example 71, 3-(((6-Chloro-2-(trifluoromethyl)quinolin-4-yl)amino)methyl)-3-(4-(cyanomethyl)-1H-pyrazol-1-yl)-N-(methyl-d3)azetidine-1-carboxamide] showed a pIC50 in assay [2] of 6.00 to 7.00.
`CN1CCC(C(=O)NC2CC(CNc3cc(C(F)(F)F)nc4ccc(Cl)cc34)(c3ccccc3)C2)CC1` (stereo not drawn) [Example 76, N-(3-(((6-Chloro-2-(trifluoromethyl)quinolin-4-yl)amino)methyl)-3-phenylcyclobutyl)-1-methylpiperidine-4-carboxamide] showed a pIC50 in assay [2] of 7.00 to 10.00.
For `C[C@]1(O)CC[C@@H](NC(=O)N2CC(CNc3cc(C(F)(F)F)nc4ccc(Cl)cc34)(n3cc(F)cn3)C2)CC1` [Example 89, 3-(((6-Chloro-2-(trifluoromethyl)quinolin-4-yl)amino)methyl)-3-(4-fluoro-1H-pyrazol-1-yl)-N-((1s,4s)-4-hydroxy-4-methylcyclohexyl)azetidine-1-carboxamide], the negative logarithm of the IC50 (pIC50) in assay [1] and in assay [2] was 7.00 to 10.00 each time.
For `NS(=O)(=O)NC1CC(CNc2cc(C(F)(F)F)nc3ccc(Cl)cc23)(c2ccccc2)C1` (stereo not drawn) [Example 73, N-((3-Aminosulfonylamino-1-phenylcyclobutyl)methyl)-6-chloro-2-(trifluoromethyl)quinolin-4-amine], the pIC50 in assay [1] and in assay [2] was 7.00 to 10.00 throughout.
`O=C(N[C@H]1C[C@H](O)C1)N1CCC(CNc2cc(C(F)(F)F)nc3ccc(Cl)cc23)(c2ccc(F)cc2)CC1` [Example 86, 4-(((6-Chloro-2-(trifluoromethyl)quinolin-4-yl)amino)methyl)-4-(4-fluorophenyl)-N-((1r,3r)-3-hydroxycyclobutyl) piperidine-1-carboxamide]: the pIC50 in assay [1] and in assay [2] was 7.00 to 10.00 each time.
With `O=C(N[C@@H]1CC[C@@H](O)C1)N1CC(CNc2cc(C(F)(F)F)nc3ccc(Cl)cc23)(c2ccc(F)cc2)C1` [Example 90, 3-(((6-Chloro-2-(trifluoromethyl)quinolin-4-yl)amino)methyl)-3-(4-fluorophenyl)-N-((1R,3R)-3-hydroxycyclopentyl)azetidine-1-carboxamide], the pIC50 in assay [1] and in assay [2] was 7.00 to 10.00 each time.
As to `FC(F)(F)c1cc(NCC2(n3ccc(C(F)(F)F)n3)CNC2)c2cc(Cl)ccc2n1` [Example 68, 6-Chloro-2-(trifluoromethyl)-N-((3-(3-(trifluoromethyl)-1H-pyrazol-1-yl)azetidin-3-yl)methyl)quinolin-4-amine], the pIC50 in assay [2] was 6.00 to 7.00.
For the molecule `O=C(N[C@H]1CC[C@H](O)CC1)N1CCC(CNc2cc(C(F)(F)F)nc3ccc(Cl)cc23)(c2ccc(F)cc2)CC1` [Example 87, 4-(((6-Chloro-2-(trifluoromethyl)quinolin-4-yl)amino)methyl)-4-(4-fluorophenyl)-N-((1r,4r)-4-hydroxycyclohexyl) piperidine-1-carboxamide], the pIC50 in assay [1] and in assay [2] was 7.00 to 10.00 in each case.
Consider `NC1CC(CNc2cc(C(F)(F)F)nc3ccc(Cl)cc23)(c2ccccc2)C1` (stereo not drawn) [Example 96, N-((3-Amino-1-phenylcyclobutyl)methyl)-6-chloro-2-(trifluoromethyl)quinolin-4-amine], for which the pIC50 in assay [1] and in assay [2] was 7.00 to 10.00 each time.
Molecule `CN1CC(C(=O)NC2CC(CNc3cc(C(F)(F)F)nc4ccc(Cl)cc34)(c3ccccc3)C2)C1` (stereo not drawn) [Example 75, N-(3-(((6-Chloro-2-(trifluoromethyl)quinolin-4-yl)amino)methyl)-3-phenylcyclobutyl)-1-methylazetidine-3-carboxamide] gave a pIC50 in assay [2] of 7.00 to 10.00.
With `[O-][n+]1ccc(CN2CC(CNc3cc(C(F)(F)F)nc4ccc(Cl)cc34)(c3ccc(F)cc3)C2)cc1` [Example 95, 4-((3-(((6-Chloro-2-(trifluoromethyl)quinolin-4-yl)amino)methyl)-3-(4-fluorophenyl)azetidin-1-yl)methyl)pyridine 1-oxide], the pIC50 in assay [1] and in assay [2] was 7.00 to 10.00 in each case.
In the case of `O=C(NC1CC(CNc2cc(C(F)(F)F)nc3ccc(Cl)cc23)(c2ccccc2)C1)C(O)C(F)(F)F` (stereo not drawn) [Example 77, N-(3-(((6-Chloro-2-(trifluoromethyl)quinolin-4-yl)amino)methyl)-3-phenylcyclobutyl)-3,3,3-trifluoro-2-hydroxypropanamide], in assay [2], the pIC50 was 7.00 to 10.00.
In assay [2], `COCCN1CC(CNc2cc(C(F)(F)F)nc3ccc(Cl)cc23)(c2ccc(F)cc2)C1` [Example 92, 6-Chloro-N-((3-(4-fluorophenyl)-1-(2-methoxyethyl)azetidin-3-yl)methyl)-2-(trifluoromethyl)quinolin-4-amine] showed a pIC50 of 7.00 to 10.00.
Still for that read-out and setting: then `Cn1nccc1NC1CC(CNc2cc(C(F)(F)F)nc3ccc(Cl)cc23)(c2ccc(F)cn2)C1` (stereo not drawn) [Example 72, 6-Chloro-N-((1-(5-fluoropyridin-2-yl)-3-((1-methyl-1H-pyrazol-5-yl)amino)cyclobutyl)methyl)-2-(trifluoromethyl)quinolin-4-amine], with 7.00 to 10.00; and `NC(=O)N1CC(CNc2cc(C(F)(F)F)nc3ccncc23)(c2ccc(F)cc2)C1` [Example 65, 3-(4-Fluorophenyl)-3-(((2-(trifluoromethyl)-1,6-naphthyridin-4-yl)amino)methyl)azetidine-1-carboxamide], with 6.00 to 7.00.

These data come from patent US20250084063A1 (Incyte Corporation, priority 2023, published 2025).
